Measurements as given in ChEMBL document CHEMBL3885861, “Open TG-GATES”.

Species: Rattus norvegicus
Assay: Open TG-GATES - Regimen: Daily Repeat
Format: toxicity, organism-based, Sprague-Dawley
Set-up: regimen Daily Repeat, gender Male, age 6 weeks
Conditions: in vivo, po, route gavage; for Bas / Eos / Fbg / Lym / MCH / MCHC / MCV / Mono / Neu / PT / Plat / RBC / Ret / WBC: tissue Blood; for KIDNEY_L / KIDNEY_R / KIDNEY_TOTAL: tissue Kidney; for ALP / ALT / AST / BUN / CRE / DBIL / IP / K / LDH / Na / RALB / TBIL / TC / TG / TP / gamma-GTP / GLC: tissue Plasma
[1] = 0 mg/kg, 72 h, dose level Control, time 3 day
[2] = 0 mg/kg, […], dose level Control, time 7 day
[3] = 0 mg/kg, […], dose level Control, time 14 day
[4] = 0 mg/kg, […], dose level Control, time 28 day
[5] = 3 mg/kg, 72 h, dose level Low, time 3 day
[6] = 3 mg/kg, […], dose level Low, time 7 day
[7] = 3 mg/kg, […], dose level Low, time 14 day
[8] = 3 mg/kg, […], dose level Low, time 28 day

Work on `Cc1cnc(NC(=O)C2=C(O)c3ccccc3S(=O)(=O)N2C)s1` [MELOXICAM] yielded a TERMINAL_BW [1] of 245.1 g, a Bas [1] of 0.8% and an Eos [1] of 1.2%. It also gave a Fbg [1] of 223.6 mg/dL, a Lym [1] of 78.4% and an MCH [1] of 21.4 pg. It also gave an MCHC [1] of 34.2%, an MCV [1] of 62.4 fL and a Mono [1] of 2.8%. The Neu [1] was 17%, the PT [1] was 11.9 s and the Plat [1] was 120 x10_4/uL. It also gave an RBC [1] of 645.4 x10_4/ul, a Ret [1] of 5.5% and a KIDNEY_L [1] of 1 g. It also gave a KIDNEY_R [1] of 1 g, a KIDNEY_TOTAL [1] of 2 g and an ALP [1] of 947 IU/L. The ALT [1] was 42.2 IU/L, the AST [1] was 70.4 IU/L and the BUN [1] was 18 mg/dL. It also gave a CRE [1] of 0.4 mg/dL, a DBIL [1] of 0.1 mg/dL and an IP [1] of 7.7 mg/dL. The K [1] was 4.1 meq/L, the LDH [1] was 199.2 IU/L and the Na [1] was 141 meq/L. It also gave an RALB [1] of 3.5 g/dL, a TBIL [1] of 0.2 mg/dL and a TC [1] of 70.8 mg/dL. It also gave a TG [1] of 111.6 mg/dL, a TP [1] of 5.6 g/dL and a gamma-GTP [1] of 1 IU/L. The TERMINAL_BW [2] was 281.9 g, the TERMINAL_BW [3] was 300.3 g and the TERMINAL_BW [4] was 396.9 g. For the same compound, the Bas [2] was 0.8%, the Eos [2] was 1% and the Fbg [2] was 216.6 mg/dL. It also gave a Lym [2] of 78.4%, an MCH [2] of 21.4 pg and an MCHC [2] of 34.9%. It also gave an MCV [2] of 61.4 fL, a Mono [2] of 2.4% and a Neu [2] of 16.6%. The PT [2] was 11.9 s, the Plat [2] was 139.5 x10_4/uL and the RBC [2] was 655.6 x10_4/ul. It also gave a Ret [2] of 5.1%, a Bas [3] of 1% and an Eos [3] of 0.8%. It also gave a Fbg [3] of 226.8 mg/dL, a Lym [3] of 78.4% and an MCH [3] of 20.1 pg. The MCHC [3] was 34%, the MCV [3] was 59.1 fL and the Mono [3] was 2.8%. For the same compound, the Neu [3] was 16.8%, the PT [3] was 11.6 s and the Plat [3] was 111.1 x10_4/uL. For the same compound, the RBC [3] was 734.2 x10_4/ul, the Ret [3] was 3.2% and the Bas [4] was 1%. For the same compound, the Eos [4] was 1%, the Fbg [4] was 207.2 mg/dL and the Lym [4] was 87%. For the same compound, the MCH [4] was 19.3 pg, the MCHC [4] was 34.4% and the MCV [4] was 56.1 fL. For the same compound, the Mono [4] was 1.5%, the Neu [4] was 9% and the PT [4] was 11.6 s. The RBC [4] was 768.2 x10_4/ul, the Ret [4] was 2.4% and the WBC [4] was 144.5 x10_2/uL. It also gave a KIDNEY_L [2] of 1.2 g, a KIDNEY_R [2] of 1.1 g and a KIDNEY_TOTAL [2] of 2.3 g. It also gave a KIDNEY_L [3] of 1.2 g, a KIDNEY_R [3] of 1.2 g and a KIDNEY_TOTAL [3] of 2.4 g. For the same compound, the KIDNEY_L [4] was 1.4 g, the KIDNEY_R [4] was 1.3 g and the KIDNEY_TOTAL [4] was 2.7 g. For the same compound, the ALP [2] was 892.2 IU/L, the ALT [2] was 33.8 IU/L and the AST [2] was 68.2 IU/L. For the same compound, the BUN [2] was 15.8 mg/dL, the CRE [2] was 0.4 mg/dL and the DBIL [2] was 0.082 mg/dL. The GLC [2] was 214.8 mg/dL, the IP [2] was 7.3 mg/dL and the K [2] was 3.8 meq/L. For the same compound, the LDH [2] was 190.6 IU/L, the Na [2] was 142 meq/L and the RALB [2] was 3.3 g/dL. The TBIL [2] was 0.1 mg/dL, the TC [2] was 67.2 mg/dL and the TG [2] was 110.2 mg/dL. It also gave a TP [2] of 5.7 g/dL, a gamma-GTP [2] of 1.2 IU/L and an ALP [3] of 880.6 IU/L. For the same compound, the ALT [3] was 36.6 IU/L, the AST [3] was 69.6 IU/L and the BUN [3] was 16.4 mg/dL. The CRE [3] was 0.4 mg/dL, the DBIL [3] was 0.094 mg/dL and the IP [3] was 6.9 mg/dL. It also gave a K [3] of 4 meq/L, an LDH [3] of 178.6 IU/L and a Na [3] of 142 meq/L. The RALB [3] was 3.6 g/dL, the TBIL [3] was 0.2 mg/dL and the TC [3] was 69 mg/dL. For the same compound, the TG [3] was 113.2 mg/dL, the TP [3] was 6.1 g/dL and the gamma-GTP [3] was 1 IU/L. For the same compound, the ALP [4] was 523.8 IU/L, the ALT [4] was 32 IU/L and the AST [4] was 65.8 IU/L. The BUN [4] was 18.2 mg/dL, the CRE [4] was 0.5 mg/dL and the DBIL [4] was 0.1 mg/dL. It also gave a GLC [4] of 239.5 mg/dL, an IP [4] of 6.9 mg/dL and a K [4] of 4.1 meq/L. The LDH [4] was 187.8 IU/L, the Na [4] was 140.8 meq/L and the RALB [4] was 3.5 g/dL. For the same compound, the TBIL [4] was 0.2 mg/dL, the TC [4] was 69 mg/dL and the TG [4] was 141.2 mg/dL. It also gave a TP [4] of 5.9 g/dL, a gamma-GTP [4] of 0.5 IU/L and a TERMINAL_BW [5] of 246.9 g. It also gave a Bas [5] of 0.8%, an Eos [5] of 0.8% and a Fbg [5] of 225.2 mg/dL. It also gave a Lym [5] of 83%, an MCH [5] of 21.6 pg and an MCHC [5] of 34.6%. For the same compound, the MCV [5] was 62.5 fL, the Mono [5] was 2.2% and the Neu [5] was 13%. It also gave a PT [5] of 11.8 s, a Plat [5] of 121.1 x10_4/uL and an RBC [5] of 639.2 x10_4/ul. For the same compound, the Ret [5] was 5.7%, the KIDNEY_L [5] was 1.1 g and the KIDNEY_R [5] was 1.1 g. It also gave a KIDNEY_TOTAL [5] of 2.2 g, an ALP [5] of 950.2 IU/L and an ALT [5] of 35.6 IU/L. The AST [5] was 62.4 IU/L, the BUN [5] was 15.2 mg/dL and the CRE [5] was 0.4 mg/dL. The DBIL [5] was 0.1 mg/dL, the IP [5] was 7.6 mg/dL and the K [5] was 4.1 meq/L. It also gave an LDH [5] of 195.6 IU/L, a Na [5] of 141 meq/L and an RALB [5] of 3.5 g/dL. It also gave a TBIL [5] of 0.2 mg/dL, a TC [5] of 69.8 mg/dL and a TG [5] of 140.8 mg/dL. It also gave a TP [5] of 5.6 g/dL, a gamma-GTP [5] of 0.8 IU/L and a TERMINAL_BW [6] of 277.7 g. For the same compound, the TERMINAL_BW [7] was 332.6 g, the TERMINAL_BW [8] was 420.4 g and the Bas [6] was 1%. The Eos [6] was 1%, the Fbg [6] was 226.4 mg/dL and the Lym [6] was 81.6%. For the same compound, the MCH [6] was 21.9 pg, the MCHC [6] was 34.7% and the MCV [6] was 63.3 fL. The Mono [6] was 2.4%, the Neu [6] was 14.6% and the PT [6] was 11.9 s. For the same compound, the Plat [6] was 124.9 x10_4/uL, the RBC [6] was 637.8 x10_4/ul and the Ret [6] was 5.5%. It also gave a WBC [6] of 129.6 x10_2/uL, a Bas [7] of 1% and an Eos [7] of 1%. The Fbg [7] was 222.4 mg/dL, the Lym [7] was 80% and the MCH [7] was 20.4 pg. The MCHC [7] was 33.6%, the MCV [7] was 60.7 fL and the Mono [7] was 2.6%. The Neu [7] was 15.2%, the PT [7] was 11.6 s and the Plat [7] was 118.9 x10_4/uL. For the same compound, the RBC [7] was 689.2 x10_4/ul, the Ret [7] was 4.1% and the WBC [7] was 124.4 x10_2/uL. The Bas [8] was 1%, the Eos [8] was 1% and the Fbg [8] was 213.8 mg/dL. It also gave a Lym [8] of 81.2%, an MCH [8] of 18.9 pg and an MCHC [8] of 34.2%. For the same compound, the MCV [8] was 55.2 fL, the Mono [8] was 2.2% and the Neu [8] was 13.4%. It also gave a PT [8] of 11.7 s, a Plat [8] of 115.1 x10_4/uL and an RBC [8] of 790 x10_4/ul. It also gave a Ret [8] of 2.5%, a WBC [8] of 131 x10_2/uL and a KIDNEY_L [6] of 1.3 g. The KIDNEY_R [6] was 1.2 g, the KIDNEY_TOTAL [6] was 2.5 g and the KIDNEY_L [7] was 1.4 g. The KIDNEY_R [7] was 1.3 g, the KIDNEY_TOTAL [7] was 2.7 g and the KIDNEY_L [8] was 1.5 g. It also gave a KIDNEY_R [8] of 1.5 g, a KIDNEY_TOTAL [8] of 3 g and an ALP [6] of 971.8 IU/L. For the same compound, the ALT [6] was 37 IU/L, the AST [6] was 68.4 IU/L and the BUN [6] was 15.2 mg/dL. For the same compound, the CRE [6] was 0.4 mg/dL, the DBIL [6] was 0.098 mg/dL and the IP [6] was 7.4 mg/dL. For the same compound, the K [6] was 4.1 meq/L, the LDH [6] was 186.8 IU/L and the Na [6] was 141.8 meq/L. For the same compound, the RALB [6] was 3.4 g/dL, the TBIL [6] was 0.2 mg/dL and the TC [6] was 72.6 mg/dL. For the same compound, the TG [6] was 128.8 mg/dL, the TP [6] was 5.7 g/dL and the gamma-GTP [6] was 1.2 IU/L. For the same compound, the ALP [7] was 820.8 IU/L, the AST [7] was 75.2 IU/L and the BUN [7] was 17 mg/dL. The CRE [7] was 0.5 mg/dL, the DBIL [7] was 0.1 mg/dL and the GLC [7] was 214.6 mg/dL. The IP [7] was 7.4 mg/dL, the K [7] was 4 meq/L and the LDH [7] was 223.6 IU/L. For the same compound, the Na [7] was 141.4 meq/L, the RALB [7] was 3.5 g/dL and the TBIL [7] was 0.2 mg/dL. It also gave a TC [7] of 72.6 mg/dL, a TG [7] of 141.8 mg/dL and a TP [7] of 5.9 g/dL. The gamma-GTP [7] was 1 IU/L.
